“Also recorded” adds a separate entry of the source.
Columns and labels:
[1] = tested on: Porphyromonas Gingivalis and Prevotella Intermedia; assay: Lethal photosensitization of oral pathogens in vitro, colony count after methylene blue stain and red-filtered halogen light; assay type: cell-based
Experimental: Suitable stain dosages for providing lethal sensitization of oral pathogens are determined in vitro by the following procedure. An objective is to determine the minimum duration of light exposure and minimum agent dilution required to achieve at least a 50% reduction in bacteria counts. Experimental tests are performed on two common pathogens using a continuously working, high intensity, red filtered halogen lamp. Red light from the filtered halogen lamp is transmitted through a flexible light guide to radiate downwardly onto petri dishes containing samples of live bacteria of species Porphyromonas Gingivalis and Prevotella Intermedia using the protocols described below.
(§1) Bacteria. Prevotella Intermedia is isolated from patient sample material, identified in the laboratory using standard diagnostic test systems (Remel Inc., Lenexa, Kans., USA) and is maintained by twice-weekly subculture in thioglycollate medium (Becton Dickinson and Co, Sparks, Md., USA). P. gingivalis ATCC 33277 obtained from Remel Inc., is maintained by a twice-weekly subculture on CDC anaerobe blood agar (Becton Dickinson and Co, USA) and in thioglycollate medium (Becton Dickinson and Co, USA).
(§2) Light Source. The source for light energy is a continuously working, high intensity halogen lamp having a built-in 250-Watt quartz halogen light source, model 1-250 supplied by Medithon, New York, N.Y., USA. Such lights are customarily employed for ear, nose or throat procedures. The light is transmitted through a flexible light guide and filtered to maintain maximum energy output at wavelengths in the vicinity of about 650 nm using a broadband red filter (Edmund Optics Inc., Barrington, N.J., USA). The light output power density measured at 3 cm distance from the end of the light guide with filter is about 50 milliwatts/cm2.
Photosensitizer. […] Serial dilutions with water of initial solution with respective concentrations of 0.1%, 0.075%, 0.05%, 0.025% and 0.01% are prepared from the initial solution using sterile 10-ml bottles of normal saline and sterile syringes.
Lethal photosensitization of P. Intermedia. Petri dishes containing CDC anaerobe blood agar (Becton Dickinson and Co, USA) are inoculated with 0.5 ml of broth containing 5×10^5 CFU/ml and left closed at room temperature for about 10 minutes to let the broth penetrate the agar media. […] Only plates with concentrations of 0.01%, and 0.025% are used in the experiment with 20 min light exposure. Four plates are used for each experiment. […] The controls are covered to protect them from ambient light. […] A total of 108 subcultures is used for the experiment. Plates are incubated in anaerobic conditions in the jars using anaerobic pack kits (BBL GasPak Plus, Becton Dickinson and Co, Sparks, Md., USA) at 37° C. for 24 hours. Samples of the resulting culture growth are taken from each plate with sterile […] standard loop, dispensed in 1 ml of sterile NS and placed at the same media. Cultures are incubated at anaerobic conditions at 37° C. for another 24 hours, and after that the resulting colony count is performed on each plate.
Lethal photosensitization of P. Gingivalis. Serial dilutions of the P. gingivalis culture are prepared from the initial culture preserved on plates using 1:L sterile standard loop (Becton Dickinson and Co, USA) and sterile NS. AVitek calorimeter (Hach Company, Loveland, Colo., USA) is used to achieve a final concentration of about 5×10^3 CFU/ml from an initial 0.5 standard McFarland suspension of 10^8 CFU/ml. Plates containing CDC anaerobic blood agar (Becton Dickinson and Co, USA) are inoculated with the resulting suspension using sterile 10:L standard loops (Becton Dickinson and Co, USA). […] Plates are also incubated at 37° C. in the tightly closed jars supplied with anaerobic pack kits (BBL GasPak Plus, Becton Dickinson and Co, USA) for 24 hours, and the resulting colony count is performed on each plate.
Statistical analyses can be carried out using single-factor analysis of variance.

[2] = tested on: Porphyromonas Gingivalis and Prevotella Intermedia; assay: as above; assay type: cell-based; conditions: methylene blue 0.001% or 0.025%, without halogen light
Candida albicans = conditions: MB 450 and 500 microgram/mL, diode laser light 664 nm, 275 J/cm fiber length, 400 mW, 687.5 seconds, immunosuppressed murine model; cited from earlier work
Staph aureus = conditions: gram positive (Staph aureus); cited from earlier work
E. Coli = conditions: gram negative (E. Coli); cited from earlier work
P. gingivalis ATCC 33277 = assay: Lethal photosensitization of P. Gingivalis, colony count; assay type: cell-based, Porphyromonas Gingivalis
Source text: as §1, §2
Photosensitizer. […] Serial dilutions with water of initial solution with respective concentrations of 0.1%, 0.075%, 0.05%, 0.025% and 0.01% are prepared from the initial solution using sterile 10-ml bottles of normal saline and sterile syringes. […]

SMILES: CN(C)c1ccc2nc3ccc(=[N+](C)C)cc-3sc2c1 [methylene blue]
- Reduction of bacteria ([1]; 0.05% methylene blue alone, without exposure to light): insignificant
- difference between exposure for 10 and 20 minutes ([1]; either species, any concentration of methylene blue): No statistically significant difference
- reduction in bacteria counts ([1]; light exposure 1 min, methylene blue 0.05% and higher): Significant reduction in bacteria counts
- reduction in bacteria counts ([1]; light exposure 5 min, methylene blue 0.025%): Significant reduction in bacteria counts
- bactericidal effect ([1]; methylene blue 0.01% or higher with red-filtered high-intensity light, exposure less than 10 minutes, accumulated energy 30 J/cm^2): bactericidal effect
- killing with duration of light exposure ([1]; methylene blue 0.025%, time intervals 5 and 10 min, both cultures): statistically significant increased killing with duration
- killing with duration of light exposure ([1]; methylene blue 0.05%, time intervals 1 min, 5 min and 10 min, both cultures): statistically significant increased killing with duration
- bacterial count reduction ([1]; methylene blue 0.075% and 0.1%, light exposure 1 min, both cultures): statistically significant bacterial count reduction
- bactericidal effect ([1]; methylene blue 0.075% and 0.1%, without light exposure): significant bactericidal effect; also recorded: significantly bactericidal
- killing bacteria [2]: nor concentrations of methylene blue of 0.001% or 0.025%, without halogen light, appeared to be effective in killing bacteria
- eradication of Candida albicans (Candida albicans): totally eradicate
- phototoxicity (Staph aureus): bacterial cell death
- phototoxicity (E. Coli): bacterial cell death
- bacterial killing (P. gingivalis ATCC 33277; methylene blue 0.01%, without light exposure, P. gingivalis culture): statistically significant bacterial killing
- bactericidal effect (P. gingivalis ATCC 33277; methylene blue 0.1%, P. gingivalis): bactericidal effect

SMILES: Cc1cc2nc3ccc(N(C)C)cc3[s+]c2cc1N.[Cl-] [toluidine blue 0]
- phototoxicity (Staph aureus): bacterial cell death
- phototoxicity (E. Coli): bacterial cell death
